From patent US20140017204A1, “Transfection of Mesothelium Body Cavity Lining with Gene Agents Followed by Chemotharapy to Treat Cancer of Organs in the Body Cavity” (WKD Holding Oy, priority 2012, published 2014)

Assays:
SKOV-3m cells = test: intraperitoneal ovarian cancer xenograft model in mice; type: in vivo, Balb/cA-nu female nude mice; settings: for mean survival: control group 15±1 days
Protocol: Gene therapy was also combined with chemotherapy. Therapy was initiated when sizable tumors were confirmed in magnetic resonance imaging (MRI). Adenovirus-mediated gene transfer was performed intravenously (2×10^9 pfu), while chemotherapy and monoclonal anti-VEGF-antibody were dosed intraperitoneally. […] Effectiveness was assessed by survival time and surrogate measures such as sequential MRI, immunohistochemistry, microvessel density and tumor growth.
Cells were cultured in McCoy's 5A medium (Gibco, Invitrogen, Life Technologies). Cancer cells were tested to be mycoplasma free. Before in vivo inoculation, the cells were trypsinized and counted.
Chemotherapy and anti-VEGF-antibody: Carboplatin 10 mg/ml infusion concentrate was used at a dose of 80 mg/kg for the primary treatment of Balb/cA-nu mice. The dose per Balb/cA-nu was 1.6 mg/500 μl NaCl 0.9%. Paclitaxel 6 mg/ml concentrate was used at a dose of 20 mg/kg. The dose per nude mouse was 320 μg/500 μl NaCl 0.9%. […] It was injected every fifth day.
Viral vectors: Adenoviral vectors encoding sVEGFR-1-IgG fusion protein, sVEGFR-2-IgG fusion protein, sVEGFR-3-IgG fusion protein and LacZ (AdLacZ) as a control vector were used for the study.
Animal model: Eight to 10-weeks-old (n ¼ 80) Balb/cA-nu female nude mice were used for the studies. Ovarian carcinoma was produced by inoculating 1×10^7 SKOV-3m cells into the peritoneal cavity of nude mice with a 22 G needle. Development of the ovarian cancerous tumors was followed by sequential MRI. When the first solid, measurable tumor was detected in MRI, gene transfer or other treatment was started on the following day. Mice were randomly divided into six groups:
Tumors developed within 3 weeks after the inoculation of the tumor cells. The presence of all tumors was verified by MRI (magnetic resonance imaging) before starting the therapy. Tumors were observed weekly until the death of the mice. Plasma samples were collected 6, 13, 20 and 27 days after the treatment. Gene transfer was performed intravenously (i.v.) via tail vein in the final volume of 200 ll in 0.9% saline.
MRI was done weekly after gene transfer or treatment, and tumor volumes were measured. The overall follow-up time lasted until the appearance of significant symptoms necessitating sacrifice or to the death. At the time of death, all tumor tissue, liver, spleen, kidneys and lungs were harvested, and tumor masses were weighed. Ascites fluid was collected in a syringe. The mice were kept in a pathogen-free isolated unit at the National Experimental Animal Center of the University of Eastern Finland. Food, water and sawdust bedding were autoclaved, and the mice received chow and water ad libitum.
Photographs of histological sections were taken and processed using an Olympus AX70 microscope (Olympus Optical, Japan) and analySIS (Soft Imaging System, GmbH, Germany) and PhotoShop (Adobe) softwares. Microvessel density (MVD) and total microvascular area (%) of the tumors (TVA) were measured from CD34-immunostained sections using analySIS software at 100× magnification in a blinded manner (FIG. 36). Six to 10 different fields, which represented maximum MVD areas, were selected from each tumor. Necrotic areas were avoided. In addition, the total number of LYVE-1-positive lymphatic vessels per section was counted. Mean 6 SEM of the measurements are reported. […]

[1] = system: malignant pleural mesothelioma; settings: in vivo; cited from earlier work
murine tumor = murine tumor volume: gemcitabine and interferon beta gene therapy vector (FIG. 21); type: in vivo; settings: after 40 days; placebo about 1400
Description: FIG. 21 is a chart comparing murine tumor volume of control; gemcitabine (administered day=0); interferon beta gene therapy vector (administered day=0); and interferon beta gene therapy vector (day=0) followed by gemcitabine (day=3).

N.N.O=C([O-])C1(C(=O)[O-])CCC1.[Pt+2] [carboplatin]
mean survival (SKOV-3m cells): 13 ± 1 days

N.N.[Cl][Pt][Cl] [cisplatin]
median survival time [1]: 9 months

Nc1ccn([C@@H]2O[C@H](CO)[C@@H](O)C2(F)F)c(=O)n1 [gemcitabine]
average tumor size (murine tumor): 1200 mm^3

CC(=O)O[C@H]1C(=O)[C@@]2(C)[C@H]([C@H](OC(=O)c3ccccc3)[C@]3(O)C[C@H](OC(=O)[C@H](O)[C@@H](NC(=O)c4ccccc4)c4ccccc4)C(C)=C1C3(C)C)[C@]1(OC(C)=O)CO[C@@H]1C[C@@H]2O [paclitaxel]
mean survival (SKOV-3m cells): 15 ± 1 days

bevacizumab
effect on angiogenesis by micro-vessel measurements (SKOV-3m cells; mouse, in vivo): did not have any effect
effect on survival, tumor volume or mean tumor weight (SKOV-3m cells; mouse, in vivo): did not have any significant effect
effect on the survival (SKOV-3m cells; mouse, in vivo): did not have any significant effect
